# Data: patent publication US20240336657A1, “G-ALPHA-S PEPTIDE INHIBITORS AND USES THEREOF” (The Regents of the University of California, priority 2021, published 2024)
# Positions of bridges follow the written chain, without caps; N, C: chain ends. Non-standard residues stand in square brackets, D forms with d. Residues, ends and D or L forms follow the SMILES beside them.
# Columns and labels:
# [1] = Plasma stability assay in human plasma; assay type: in vitro ADME; settings: both sexes, pooled human plasma, 37° C., values represent 95% confidence intervals
# Procedure: These assays were conducted by Pharmaron Beijing CO., Ltd. Cyclic peptides working solutions were prepared at 10 μM in DMEM with 10% FBS (Avantor, Cat #76294-180) or human plasma (Pooled, Male & Female, BioIVT, Cat #HMN666664). The assays were performed in duplicate. Vials were incubated at 37° C. at 60 rpm in a water bath and taken at designated time points including 0, 480, 1080 and 1440 min. For each time point, the initiation of the reaction was staggered so all the time points were terminated with cold acetonitrile containing internal standards (IS, 100 nM alprazolam, 200 nM labetalol, 200 nM Imipramine and 2 μM ketoplofen) at the same time. Samples were vortexed then centrifuged at 4° C. to remove proteins. The supernatants from centrifugation were diluted by ultra-pure H2O and used for LC-MS/MS analysis. All calculations were carried out using GraphPad Prism. Remaining percentages of parent compounds at each time point were estimated by determining the peak area ratios from extractedion chromatograms.
# GDP-bound Gαs = target: T1, GDP-bound Gαs (Homo sapiens, UniProt P63092); assay: Bio-layer interferometry (BLI) binding kinetics
# T1 construct: hexahistidine (N, cleaved yes); made in house; host or cells: Escherichia coli BL21(DE3)
# Procedure: BLI experiments were performed using an OctetRED384 instrument from ForteBio. All experiments were performed at 25° C. using BLI buffer (10 mM HEPES pH 7.4, 150 mM NaCl, 1 mM MgCl2, 0.05% Tween-20, 0.1% DMSO, 0.2 mM GppNHp or GDP). Cyclic peptides were diluted to a series of concentrations in BLI buffer plus 10 μM Biotin. Assays were conducted in Greiner 384well, black, flat bottom polypropylene plates containing the protein solutions, BLI buffer plus 10 μM Biotin for dissociation, and serial dilutions of cyclic peptides to be tested.
# Biotinylated proteins were immobilized on Streptavidin biosensors by dipping sensors into plate wells containing protein solutions at a concentration of 100-150 nM. Protein loading is around 2-3 nm. Sensors loaded with proteins were moved and dipped into wells with BLI buffer plus 10 μM Biotin to block unlabeled Streptavidin. Association-dissociation cycles of compounds were started by moving and dipping sensors to cyclic peptides dilutions and BLI buffer plus 10 μM Biotin wells alternatively. Association and dissociation times were carefully determined to ensure full association and dissociation.
# Raw kinetic data collected were processed with the Data Analysis software provided by the manufacturer using single reference subtraction in which buffer-only reference was subtracted (For GN13 analysis). Because GD20 analogs have a low level of background binding, we used a double reference subtraction (buffer-only reference and non-protein-loading reference) method to calculate their kinetics values. The resulting data were analyzed based on a 1:1 binding model from which kon and koff values were obtained and then Kd values were calculated.
# [2] = target: T2, GTP- and GppNHp-bound Gαs Q227L mutant (Homo sapiens, UniProt P63092, Q227L); assay: Adenylyl cyclase activation assay with oncogenic mutant; assay type: biochemical
# T2 construct: made in house; host or cells: Escherichia coli BL21(DE3)
# Text: Gαs is one of the most frequently mutated G proteins in human cancer. Hotspot mutations in Gαs (Q227) disrupt its GTPase activity, thereby locking Gαs in the GTP-bound active conformation (Zachary et al., 1990).
# WT Gαs = WT Gαs (Homo sapiens, UniProt P63092); assay: Adenylyl cyclase activity assay in membranes of GNAS KO HEK293 cells transfected with WT Gαs; assay type: biochemical; design: expressed in transfected cells; host or cells: GNAS KO HEK293 cells (membranes); settings: WT Gαs reintroduced by transient transfection
# Text: To further assess the cellular specificity of GN13, we designed a GN13-resistant Gαs mutant based on structural analysis. […] We reasoned that mutating this serine residue to a bulky residue should create a drug-resistant Gαs mutant that blocks the GN13-Gαs interaction but would have little effect on adenylyl cyclase activation. […] By contrast, when the drug resistant mutant Gαs S275L was reintroduced into GNAS KO cells, the inhibitory effect of GN13 was abolished (FIG. 3I), providing further evidence that the observed pharmacological activity is due to GN13 binding to the switch II/α3 pocket in Gαs.
# GN13 inhibition of Gαs proteins in HEK293 cell membranes (FIG. 17F and FIG. 18F).
# a. Cell membrane preparation: HEK293cells, GNAS KO HEK293 cells were plated two day before transfection at a density of 1M cells per 10 cm plate. […] The protein concentrations were measured using BCA, and were normalized to 750 μg/mL. […] The cAMP concentrations were measured by the LANCE Ultra cAMP kit. […]
# A cAMP standard curve was generated in the same plate using the 50 μM cAMP standard in the kit. […] 10 μL of each diluted sample was mixed with 5 μL of 4× Eu-cAMP tracer and 5 μL of 4× ULight-anti-cAMP in a white, opaque Optiplate-384 microplate, incubated for 1 hour at room temperature, and the time-resolved fluorescence resonance energy transfer (TR-FRET) signals were read on a Spark 20M plate reader. […]
# T2 sequence (P63092 7-380 isoform P63092-2 Q213L limits assumed): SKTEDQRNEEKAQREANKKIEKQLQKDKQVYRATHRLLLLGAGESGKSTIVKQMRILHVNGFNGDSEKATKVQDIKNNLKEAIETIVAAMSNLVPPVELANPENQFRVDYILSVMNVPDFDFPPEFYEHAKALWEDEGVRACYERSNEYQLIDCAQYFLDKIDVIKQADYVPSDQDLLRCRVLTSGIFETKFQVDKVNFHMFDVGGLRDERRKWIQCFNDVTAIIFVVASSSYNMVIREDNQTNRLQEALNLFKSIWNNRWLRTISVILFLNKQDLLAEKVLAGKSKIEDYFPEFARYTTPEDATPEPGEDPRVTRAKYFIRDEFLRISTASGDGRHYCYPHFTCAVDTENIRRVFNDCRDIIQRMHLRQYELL
# Chain of WT Gαs (P63092 whole entry): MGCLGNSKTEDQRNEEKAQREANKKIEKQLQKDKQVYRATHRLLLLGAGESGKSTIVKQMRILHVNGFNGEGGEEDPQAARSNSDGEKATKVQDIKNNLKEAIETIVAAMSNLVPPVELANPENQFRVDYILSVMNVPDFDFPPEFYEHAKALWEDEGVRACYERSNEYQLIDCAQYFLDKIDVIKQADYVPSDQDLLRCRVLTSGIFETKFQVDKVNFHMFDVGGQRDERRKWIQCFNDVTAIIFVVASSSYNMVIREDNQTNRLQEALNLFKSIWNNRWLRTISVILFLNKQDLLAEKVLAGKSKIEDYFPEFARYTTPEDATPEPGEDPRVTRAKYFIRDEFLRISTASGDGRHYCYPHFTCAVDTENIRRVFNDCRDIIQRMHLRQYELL
SMILES,half-life at 10 μM [1] [h],Kd (GDP-bound Gαs; GDP/Gαs) [nM],koff (GDP-bound Gαs; GDP/Gαs) [s⁻¹],kon (GDP-bound Gαs; GDP/Gαs) [M⁻¹ s⁻¹],inhibition of Gαs Q227L mutant in the adenylyl cyclase activation assay [2],binding to GDP-bound Gαs (GDP-bound Gαs; highest concentration tested),inhibition of isoproterenol-mediated cAMP production in cell membranes (WT Gαs)
CC[C@H](C)[C@@H]1NC(=O)[C@H](CC(C)C)NC(=O)[C@@H](Cc2ccc(O)cc2)NC(=O)CSC[C@@H](C(=O)NCC(N)=O)NC(=O)[C@@H]2CCCN2C(=O)[C@H](CC(C)C)NC(=O)[C@H](CC(N)=O)NC(=O)[C@H](CC(C)C)NC(=O)[C@H](C)NC(=O)[C@H](Cc2c[nH]c3ccccc23)NC(=O)[C@H](CCC(N)=O)NC(=O)[C@H](CCCNC(=N)N)NC(=O)[C@H](Cc2ccccc2)NC(=O)[C@H]([C@@H](C)O)NC1=O [GD20-F10L] ({CH2CO}-[dY]LITFRQWALNLPCG-NH2; thioether N-14),7.16 to 12.7,14.5 ± 0.4,0.00358,247000,–,–,–
CC[C@H](C)[C@@H]1NC(=O)[C@H](C)NC(=O)[C@H](Cc2ccc(O)cc2)NC(=O)[C@H](C(C)C)NC(=O)[C@H](CO)NC(=O)[C@H](CCC(=O)O)NC(=O)[C@H](Cc2ccccc2)NC(=O)[C@@H](Cc2ccc(O)cc2)NC(=O)CSC[C@@H](C(=O)NCC(N)=O)NC(=O)[C@H](CC(C)C)NC(=O)[C@H]([C@@H](C)O)NC(=O)CNC(=O)[C@H](Cc2c[nH]c3ccccc23)NC1=O [GN13] ({CH2CO}-[dY]FESVYAIWGTLCG-NH2; thioether N-13),–,–,–,–,inhibited,no detectable binding,able to inhibit
